What all share (assay type): protein assay
Assay [1] addresses T1, Alpha-1,2-mannosidase (BT_2199) (Bacteroides thetaiotaomicron) (UniProt Q8A5N9).
T1 sequence (whole entry): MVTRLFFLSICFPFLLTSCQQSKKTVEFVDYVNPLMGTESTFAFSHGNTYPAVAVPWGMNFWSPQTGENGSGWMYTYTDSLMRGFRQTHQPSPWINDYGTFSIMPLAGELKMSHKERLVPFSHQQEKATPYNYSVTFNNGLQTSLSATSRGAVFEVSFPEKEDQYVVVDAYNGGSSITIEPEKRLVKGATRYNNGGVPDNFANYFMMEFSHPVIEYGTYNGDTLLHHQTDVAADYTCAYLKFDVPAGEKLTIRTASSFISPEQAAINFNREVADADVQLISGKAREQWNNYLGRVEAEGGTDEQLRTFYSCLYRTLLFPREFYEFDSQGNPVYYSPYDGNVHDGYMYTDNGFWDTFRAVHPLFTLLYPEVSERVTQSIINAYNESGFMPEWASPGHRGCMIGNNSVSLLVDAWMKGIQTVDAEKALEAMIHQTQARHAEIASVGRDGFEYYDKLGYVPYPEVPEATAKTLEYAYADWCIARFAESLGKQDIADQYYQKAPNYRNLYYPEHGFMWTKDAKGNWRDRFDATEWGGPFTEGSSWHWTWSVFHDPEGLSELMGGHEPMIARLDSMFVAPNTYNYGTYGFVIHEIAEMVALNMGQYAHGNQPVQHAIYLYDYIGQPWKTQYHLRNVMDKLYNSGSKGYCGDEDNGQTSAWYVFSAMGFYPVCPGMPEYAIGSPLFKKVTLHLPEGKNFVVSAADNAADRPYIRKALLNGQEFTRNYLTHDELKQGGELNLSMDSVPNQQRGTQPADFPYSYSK
The assay can be described thus: Activity of Bacteroides thetaiotaomicron GH92 alpha-mannosidase 2199 assessed as recovery of enzyme activity at 1 mM in presence of 7 mM Be(2+) ions and in presence of 5 mM EDTA in 100 mM pH 7 MOPS buffer relative to enzyme activity in presence of calcium.

Assay [2] has as its target T1, Alpha-1,2-mannosidase (BT_2199) (Bacteroides thetaiotaomicron). Description: Activity of Bacteroides thetaiotaomicron GH92 alpha-mannosidase 2199 assessed as recovery of enzyme activity at 1 mM in presence of 7 mM Zn(2+) ions and in presence of 5 mM EGTA in 100 mM pH 7 MOPS buffer relative to enzyme activity in presence of calcium.
Assay [3] deals with T2, Alpha-1,2-mannosidase (BT_3990) (Bacteroides thetaiotaomicron) (UniProt Q8A0N1).
T2 sequence (whole entry): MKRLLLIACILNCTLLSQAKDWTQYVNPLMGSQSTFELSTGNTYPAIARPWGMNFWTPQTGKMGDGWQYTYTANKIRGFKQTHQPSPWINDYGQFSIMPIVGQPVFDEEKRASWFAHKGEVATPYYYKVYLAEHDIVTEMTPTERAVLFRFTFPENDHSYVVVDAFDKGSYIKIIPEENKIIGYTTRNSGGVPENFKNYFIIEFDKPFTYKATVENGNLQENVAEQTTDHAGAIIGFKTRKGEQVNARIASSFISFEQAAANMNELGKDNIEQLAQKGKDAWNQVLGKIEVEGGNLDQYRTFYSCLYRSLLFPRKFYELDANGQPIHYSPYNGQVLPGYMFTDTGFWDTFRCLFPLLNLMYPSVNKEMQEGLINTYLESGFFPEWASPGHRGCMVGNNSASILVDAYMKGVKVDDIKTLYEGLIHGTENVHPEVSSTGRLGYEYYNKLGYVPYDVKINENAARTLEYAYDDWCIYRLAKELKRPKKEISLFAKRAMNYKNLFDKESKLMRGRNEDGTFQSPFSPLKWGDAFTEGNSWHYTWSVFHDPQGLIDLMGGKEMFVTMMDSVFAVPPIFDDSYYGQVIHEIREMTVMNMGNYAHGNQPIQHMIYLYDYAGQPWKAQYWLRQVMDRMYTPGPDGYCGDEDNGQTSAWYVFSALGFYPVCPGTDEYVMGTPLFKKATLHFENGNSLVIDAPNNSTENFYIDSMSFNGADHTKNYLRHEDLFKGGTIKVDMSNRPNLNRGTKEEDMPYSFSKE
Description: Activity of Bacteroides thetaiotaomicron GH92 alpha-mannosidase 3990 assessed as recovery of enzyme activity at 1 mM in presence of 7 mM Be(2+) ions and in presence of 5 mM EGTA in 100 mM pH 7 MOPS buffer relative to enzyme activity in presence of calcium.

Assay [4] concerns the target T2, Alpha-1,2-mannosidase (BT_3990) (Bacteroides thetaiotaomicron). The assay can be described thus: Activity of Bacteroides thetaiotaomicron GH92 alpha-mannosidase 3990 assessed as recovery of enzyme activity at 1 mM in presence of 7 mM Co(2+) ions and in presence of 5 mM EDTA in 100 mM pH 7 MOPS buffer relative to enzyme activity in presence of calcium.
The target in assay [5] is T1, Alpha-1,2-mannosidase (BT_2199) (Bacteroides thetaiotaomicron). The assay can be described thus: Activity of Bacteroides thetaiotaomicron GH92 alpha-mannosidase 2199 assessed as recovery of enzyme activity at 1 mM in presence of 7 mM Sc(3+) ions and in presence of 5 mM EDTA in 100 mM pH 7 MOPS buffer relative to enzyme activity in presence of calcium.
In assay [6] the target is T2, Alpha-1,2-mannosidase (BT_3990) (Bacteroides thetaiotaomicron). The assay can be described thus: Activity of Bacteroides thetaiotaomicron GH92 alpha-mannosidase 3990 assessed as recovery of enzyme activity at 1 mM in presence of 7 mM Be(2+) ions and in presence of 5 mM EDTA in 100 mM pH 7 MOPS buffer relative to enzyme activity in presence of calcium.
The target is the same in assay [7]. The assay can be described thus: Activity of Bacteroides thetaiotaomicron GH92 alpha-mannosidase 3990 assessed as recovery of enzyme activity at 1 mM in presence of 7 mM Ti(3+) ions and in presence of 5 mM EGTA in 100 mM pH 7 MOPS buffer relative to enzyme activity in presence of calcium.
Assay [8] has the same target. The assay can be described thus: Activity of Bacteroides thetaiotaomicron GH92 alpha-mannosidase 3990 assessed as recovery of enzyme activity at 1 mM in presence of 7 mM Zn(2+) ions and in presence of 5 mM EGTA in 100 mM pH 7 MOPS buffer relative to enzyme activity in presence of calcium.
Assay [9] addresses T1, Alpha-1,2-mannosidase (BT_2199) (Bacteroides thetaiotaomicron). The assay can be described thus: Activity of Bacteroides thetaiotaomicron GH92 alpha-mannosidase 2199 assessed as recovery of enzyme activity at 1 mM in presence of 7 mM Ba(2+) ions and in presence of 5 mM EGTA in 100 mM pH 7 MOPS buffer relative to enzyme activity in presence of calcium.
The target is the same in assay [10]. The assay can be described thus: Activity of Bacteroides thetaiotaomicron GH92 alpha-mannosidase 2199 assessed as recovery of enzyme activity at 1 mM in presence of 7 mM Co(2+) ions and in presence of 5 mM EGTA in 100 mM pH 7 MOPS buffer relative to enzyme activity in presence of calcium.
Assay [11] has the same target. Description: Activity of Bacteroides thetaiotaomicron GH92 alpha-mannosidase 2199 assessed as recovery of enzyme activity at 1 mM relative to enzyme activity in presence of calcium.
Assay [12] addresses T2, Alpha-1,2-mannosidase (BT_3990) (Bacteroides thetaiotaomicron). The assay can be described thus: Activity of Bacteroides thetaiotaomicron GH92 alpha-mannosidase 3990 assessed as recovery of enzyme activity at 1 mM relative to enzyme activity in presence of calcium.

The record followed here is ChEMBL document CHEMBL1250451, “Mechanistic insights into a Ca2+-dependent family of alpha-mannosidases in a human gut symbiont” (Nat Chem Biol, 2010).

Take `O=[N+]([O-])c1ccc(O[C@H]2O[C@H](CO)[C@@H](O)[C@H](O)[C@@H]2O)cc1`: the Activity came out at 0% in assay [1]; 0% in assay [2]; 0% in [3]; 12% in [4]; 0% in assay [5]; 0% in [6]. In addition, the Activity in assay [7] turned out to be 0%; in assay [8], 0%; in assay [9], 0%; in [10] it was 12%.
`OC[C@H]1O[C@H](OC[C@H]2O[C@H](O)[C@@H](O)[C@@H](O)[C@@H]2O)[C@@H](O)[C@@H](O)[C@@H]1O`: the Activity in assay [11] stood at 63%; in assay [12], 65%.
